Earlier results on 3 compounds are cited in patent publication US20050277626A1, “Methods and compositions for treatment of nicotine dependence and dementias” (priority 2004, published 2005).

For data set [1] the following is noted: schizophrenic patients.
The subject of data set [2] is neuroblastoma cell lines.
For data set [3] the following is noted: 400 mg per day.

With `COc1cc2c(cc1OC)C(=O)C(CC1CCN(Cc3ccccc3)CC1)C2` (stereo not shown) [donepazil], in data set [1], the “cognitive effect, blinded placebo controlled study” value is “no effect” and the “cognitive effect, open label studies” value was “modest cognitive improvements”.

Regarding `COc1ccc2c3c1O[C@H]1C[C@@H](O)C=C[C@@]31CCN(C)C2` [galantamine], the “apoptosis induced by beta-amyloid and thapsigargin” value in data set [2] is “inhibit apoptosis induced by beta-amyloid and thapsigargin in a concentration dependent manner”.

With `O=C(NCCN1CCOCC1)c1ccc(Cl)cc1` [moclobemide], the “efficacy for smoking cessation” value in data set [3] was “demonstrated efficacy”.
